The values below come from patent US20060269995A1, “Novel assays utilizing nicotinic acetylcholine receptor subunits” (priority 2005, published 2006).

For assay [1], the system named is Drosophila melanogaster flies of the Oregon wild-type strain. Description: Adult fly mortality screen, wild-type flies. The format is in vivo. The conditions noted are these: 100 ppm in 10% sucrose via cotton wick, 72 hours post-treatment. The procedure: Ten adult Drosophila melanogaster flies (5 males and 5 females) of the Oregon wild-type strain and ten adult flies of a spinosyn-resistant strain were used per treatment. Two sets (of 10 flies) were set-up per treatment. Stocks of spinosyn A and a 21-butenyl-spinosyn analog were formulated at 1000 ppm in 2:1 acetone:water and then diluted to the required concentration in 10% sucrose. Vials received 500 ul of treatment (or solvent for controls) via cotton wicks (approximately ¼ inch) and flies were added to each vial and capped with a cotton plug. Flies were monitored over 72 hours post-treatment while being maintained at room-temperature with a 12:12 light:dark cycle.
In addition, the spinosyn A resistant flies were >100-fold resistant (based on LD50) to the new class of spinosyns, represented by the 21-butenyl spinosyns.

The subject of assay [2] is 30D (nicotinic acetylcholine receptor alpha-6 subunit). The format is cell-based, Drosophila melanogaster. The conditions noted are these: spinosyn A 10 μM for 60 seconds; oocytes clamped to −60 mV; peak current; 30D. The procedure:
(§1) Xenopus laevis (Xenopus 1, Ann Arbor, Mich.; Nasco, Fort Atkinson, Wis.) were anesthetized by bathing in a solution of 2 g/l tricaine methane sulfonate, and oocytes were surgically removed from the frog and placed in a culture solution that consisted of 96 mM NaCl, 2 mM KCl, 1.8 mM CaCl2, 1 mM MgCl2, 5 mM HEPES, 2.5 mM Na-pyruvate, 100 units/ml penicillin, and 0.1 mg/ml streptomycin, pH 7.6. Oocytes were dispersed in a nominally zero Ca^2+ protease treatment solution to defolliculate the oocytes. The protease treatment solution consisted of either 88 mM NaCl, 2.5 mM KCl, 1 mM MgCl2, 5 mM HEPES, 2.5 mM Na-pyruvate, 100 units/ml penicillin, and 0.1 mg/ml streptomycin, pH 7.6 plus 1.5 mg/ml collagenase IA (Sigma Chemical Co., St. Louis, Mo.). After isolation, the oocytes were thoroughly rinsed and returned to the above Ca^2+ containing culture solution and stored at 18° C.
(§2) Synthesis of cRNA was performed as follows: Plasmid DNA was linearized with one of the following restriction enzymes; Not I, Xho I or Nhe I. The linearized DNA was subsequently used as template for cRNA synthesis using T7 mMessage mMachine kit (Ambion, Austin, Tex.) following the manufacturer's instructions.
(§3) Micropipettes for injection of cRNA into Xenopus oocytes were pulled on a DMZ-Universal Puller (Zeitz-Instruments, München, Germany). The cRNA to be injected was drawn up into the micropipette with negative pressure. Approximately 10-50 ng of cRNA was injected into the oocytes by applying positive pressure using a Nanoject II oocyte injector (Drummond Scientific Co., Broomall, Pa.). Nucleic acid was introduced into the oocytes as follows: (1) nicotinic acetylcholine receptor alpha-6 subunit subunit (30D) (2) nicotinic alpha-7 receptor subunit (34E); (3) nicotinic acetylcholine receptor alpha-6 subunit and C. elegans ric-3 (30D and ric-3); (4) nicotinic alpha-7 receptor subunit and C. elegans ric-3 (34E and ric-3); (5) nicotinic acetylcholine receptor alpha-6 subunit and nicotinic alpha-7 receptor subunit (30D and 34E); and, (6) nicotinic acetylcholine receptor alpha-6 subunit, nicotinic alpha-7 receptor subunit and C. elegans ric-3 (30D, 34E and ric-3).
(§4) The control external solution for voltage clamp recordings consisted of 88 mM NaCl, 1 mM KCl, 0.41 mM CaCl2, 2.4 mM NaHCO3, 0.3 mM Ca(NO3)2, 0.82 mM MgSO4·7 H2O, and 15 mM HEPES, pH 7.6. The recording chamber was continuously perfused with a gravity-fed perfusion system. Nicotine (1 mM) was added to the external solution and then added to the perfusate for 30 seconds. Then, nicotine was washed from the external solution a minimum of 10 minutes. Thereafter, spinosyn A was dissolved in dimethylsulfoxide (DMSO) and then dissolved in the external solution at a final concentration of 10 μM and then added to the perfusate for 60 seconds. Then, the spinosyn A was washed from the external solution. The final concentration of DMSO never exceeded 0.1% (v/v).

Assay [3] relates to 34E (nicotinic acetylcholine receptor alpha-5 subunit). Format: cell-based, Drosophila melanogaster. The conditions noted are these: spinosyn A 10 μM for 60 seconds; −60 mV; peak current; 34E. The procedure:
as §1, §2, §3, §4

Assay [4] relates to 34E/ric-3. The format is cell-based, Drosophila melanogaster. The conditions noted are these: spinosyn A 10 μM for 60 seconds; −60 mV; peak current; 34E/ric-3. On the procedure:
as §1, §2, §3, §4

Assay [5] deals with 30D/ric-3. The format is cell-based, Drosophila melanogaster. The conditions noted are these: spinosyn A 10 μM for 60 seconds, −60 mV, peak current. On the procedure:
as §1, §2, §3, §4

Assay [6] concerns 34E/30D. The format is cell-based, Drosophila melanogaster. Also noted: key to the marks not given beside the values. The conditions noted are these: spinosyn A 10 μM for 60 seconds, −60 mV, peak current. The procedure: as §1, §2, §3
as §4, with “Then, the spinosyn A was washed from the external solution. The final concentration of DMSO never exceeded 0.1% (v/v).” left out

Assay [7] has as its system 34E/30D/ric-3. The format is cell-based, Drosophila melanogaster. On the set-up: key to the marks not given beside the values. The conditions noted are these: spinosyn A 10 μM for 60 seconds, −60 mV, peak current. The procedure:
as §1, §2, §3
as §4, with “Then, the spinosyn A was washed from the external solution. The final concentration of DMSO never exceeded 0.1% (v/v).” left out
Throughout, for Spinosyn A Response: key: '−' indicates a negligible current was induced; '+' indicates a small amplitude current; '++' indicates a moderate amplitude current; '++++' indicates a large amplitude current.

As to `CC[C@H]1CCC[C@H](O[C@H]2CC[C@H](N(C)C)[C@@H](C)O2)[C@@H](C)C(=O)C2=C[C@@H]3[C@@H](C=C[C@@H]4C[C@@H](O[C@@H]5O[C@@H](C)[C@H](OC)[C@@H](OC)[C@H]5OC)C[C@@H]34)[C@@H]2CC(=O)O1` [Spinosyn A, spinosyn A], the mortality result in assay [1] was “all wild-type flies exhibited mortality”. The “Spinosyn A Response” value is “−” in assay [2]; “−” in assay [3]; “−” in assay [4]; “+” in assay [5]; “++” in assay [6]; “++++” in assay [7].
